Test results taken from publication PMC6667648 (Frontiers in Microbiology, 2019).
In brackets after ≈: the same amount, converted by molar mass. Where a SMILES comes first, the peptide text is derived from it. Bridges are numbered along the chain shown (N, C = ends).

How the values were obtained:
[1] = rat plasma, 40 and 750 ng/mL, storage at −80°C, thaw at ambient temperature min 1 h, six replicates, LC-MS/MS
S. aureus ATCC 29213 = assay: microbe, parasite or virus in culture; details: S. aureus ATCC 29213, serial passaging at sub-MIC, duplicate
Description: (§1) The development of resistance was confirmed if the microorganism started growing at continuously higher concentrations. […] Evaluations were done in duplicate.

[2] = system: human HaCaT keratinocytes; type: cell-based; details: 256 μg/mL
Experimental: Non-invasive real-time evaluation of viability, mammalian, and bacterial cells, was performed using bioluminescent human keratinocytes (HaCaT, AddexBio, San Diego, CA) and murine L929 fibroblast cells (ATCC, Manassas, VA). The bioluminescent variants were constructed by transfection with a luciferase gene (RediFect Red-Fluc-Puromycin, Catalog #CL596002) (Hamblin et al., [2003]). […] Each concentration was performed in triplicate. Bioluminescence imaging was performed at pre-specified times (0, 15, and 30 min and 1, 3, 5, 8, and 24 h) and compared to concurrently run vehicle-controls. The 96-well plate was positioned on the stage (12.5-cm field of view) within the in vivo Imaging System (IVIS) imaging system (Caliper Life Sciences, Inc., Hopkinton, MA, USA), with an open emission filter, binning of 4, and f-stop 1, and a 1-min exposure time. The resultant photons emitted from the live cells were quantified using Living Image® software (version 4.3, Caliper Life Sciences, Inc.). Monitoring bioluminescence allows assessment of the kinetics of cellular viability as there is a tight correlation between photon count imaging and viable counts (Kadurugamuwa et al., [2003]).

[3] = system: mature (120 h) MRSA ATCC 1556 biofilm; type: cell-based, Staphylococcus aureus; details: mature (120 h) MRSA biofilm, 16 h treatment, CFU count, three technical replicates
human red blood cells = assay: Human hemolysis assay; type: cell-based; details: 30 min, 37°C, absorbance 540 nm, duplicate
Experimental: […]. Distilled water was used as a control for 100% hemolysis with the background level of absorbance being water only (Stasiuk et al., [2004]). The percent hemolysis was calculated as (test wellAbs – backgroundAbs) / (100% lysisAbs – backgroundAbs). Experiments were run in duplicate.

[4] = pooled normal human serum, 200 μg/mL, 72 h, 37°C, LC-MS/MS, triplicate
S. aureus B-767 = assay: microbe, parasite or virus in culture; type: cell-based, Staphylococcus aureus; details: B-767, 24 h
Experimental: (§2) Strains were obtained from American Type Culture Collection (ATCC, Manassas, VA) or the clinical isolate collection at Trideum Biosciences (Frederick, MD, USA). Bioluminescence strains of P. aeruginosa 19660, transfected with the Xen5 luciferase gene, and S. aureus ATCC® 49525™ (Wright), transfected with the Xen36 luciferase gene, were obtained from Perkin Elmer (Hopkinton, MA).
(§3) A single colony was aseptically picked from an agar overlay and released in 25–30 mL of pre-warmed trypticase soy broth in a culture flask. Each culture was incubated overnight in a 37°C incubator. […] Pathogen growth was measured by absorbance at 600 nm. Four replicas were included for each test agent concentration. […]

MRSA 6381 = assay: microbe, parasite or virus in culture; type: cell-based, Staphylococcus aureus; details: MRSA 6381; 24-h incubation; mean of 3 replicates from 2 independent experiments
Experimental: as §2, §3

MRSA 6313 = assay: microbe, parasite or virus in culture; type: cell-based, Staphylococcus aureus; details: MRSA 6313; 24-h incubation; mean of 3 replicates from 2 independent experiments
Experimental: as §2, §3

MRSA ATCC 33592 = assay: microbe, parasite or virus in culture; type: cell-based, Staphylococcus aureus; details: MRSA ATCC 33592; 24-h incubation; mean of 3 replicates from 2 independent experiments
Experimental: as §2, §3

S. aureus 6061 = assay: microbe, parasite or virus in culture; type: cell-based, Staphylococcus aureus; details: 6061, 24 h
Experimental: as §2, §3

[5] = system: MDR S. epidermidis ATCC 700578 biofilm; type: cell-based; details: CFU count
Experimental: (§4) Biofilms (methicillin-resistant S. epidermidis, MRSE ATCC 51625 and multidrug resistant S. epidermidis MDR-SE ATCC 700578) were established following inoculation of 10^5 CFU/mL in Minimum Essential Media for 6 h or 5 days representing preformed or mature biofilm respectively, in plastic 96-well plates (Costar, Catalog #3595). […] Following test agent incubation, the media (including the planktonic cells) was removed and then the remaining biofilm treated with 50 μL 0.1% Triton X100 followed by agitating the plate on a rocker for 30 min. The biofilm was then disrupted with a 96 well replicator, the resultant mixture vortexed, samples serially diluted, plated on agar plates, and incubated overnight and CFUs subsequently counted. Three technical replicates were performed for each condition tested.

[6] = system: methicillin-resistant S. epidermidis biofilm; type: cell-based
Experimental: as §4

[7] = system: clindamycin resistant S. aureus from passage 30
Description: as §1

[8] = system: Gentamicin resistant P. aeruginosa from passage 30; details: gentamicin resistant P. aeruginosa from passage 30 (gentamicin MIC 512 μg/mL)
Description: as §1

[9] = system: P. aeruginosa P14 biofilm; type: cell-based, Pseudomonas aeruginosa; details: CFU count
E. cloacae 6054 = assay: microbe, parasite or virus in culture; type: cell-based; details: 6054, 24 h
Experimental: as §2, §3

E. cloacae 6053 = assay: microbe, parasite or virus in culture; type: cell-based; details: 6053, 24 h
Experimental: as §2, §3

C. parapsilosis Y-1761 = assay: microbe, parasite or virus in culture; type: cell-based; details: 24-h incubation, mean of 3 replicates from 2 independent experiments
Experimental: as §2, §3

C. parapsilosis Y-1763 = assay: microbe, parasite or virus in culture; type: cell-based; details: 24-h incubation, mean of 3 replicates from 2 independent experiments
Experimental: as §2, §3

C. albicans Y-6359 = type: cell-based; details: 24-h incubation, mean of 3 replicates from 2 independent experiments
Experimental: as §2, §3

C. albicans Y-326 = type: cell-based; details: 24-h incubation, mean of 3 replicates from 2 independent experiments
Experimental: as §2, §3

S. epidermis ATCC 51625 = assay: microbe, parasite or virus in culture; type: cell-based, S. epidermidis; details: ATCC 51625, 24 h
Experimental: as §2, §3

CC[C@H](C)[C@@H]1NC(=O)CNC(=O)[C@H](CCCCN)NC(=O)[C@H](Cc2ccc(O)cc2)NC(=O)[C@@H]2CSSC[C@H](NC1=O)C(=O)N[C@@H](Cc1ccccc1)C(=O)N[C@@H](CCCCN)C(=O)N[C@@H](CCCCN)C(=O)N[C@H](C(=O)N[C@@H](CCCCN)C(N)=O)CSSC[C@H](NC(=O)[C@H](Cc1ccccc1)NC(=O)[C@@H](N)CCCNC(=N)N)C(=O)N[C@@H](Cc1c[nH]c3ccccc13)C(=O)N[C@@H](CCCCN)C(=O)N[C@@H](C(C)C)C(=O)N2 [RP557] (H-RFCWKVCYKGICFKKCK-NH2; disulfide 3-16, 7-12)
Degradation after three freeze-thaw cycles [1]: did not show signs of degradation | MIC on Passage #0 and Passage #1 (S. aureus ATCC 29213): 2 µg/mL (≈ 0.936 µM) | MIC on Passage #30 (S. aureus ATCC 29213): 32 µg/mL (≈ 15 µM) | Keratinocyte cell killing ([2]; 8 h incubation): no cell killing observed | Keratinocyte viability ([2]; 8 h): greater than 80% | EC90 (concentration to reduce biofilm by 90%) [3]: 2 µg/mL (≈ 0.936 µM) | Minimum hemolytic concentration required to cause 10% hemolysis, MHC (human red blood cells): 128 µg/mL | Degradation in human serum [4]: did not degrade | Minimum Inhibitory Concentration (MIC) (S. aureus B-767): 2.0 [4] μM | Minimum Inhibitory Concentration (MIC) (MRSA 6381): 2.0 [4] μM | Minimum Inhibitory Concentration (MIC) (MRSA 6313): 2.0 [4] μM | Minimum Inhibitory Concentration (MIC) (MRSA ATCC 33592): 2.0 [4] μM | Minimum Inhibitory Concentration (MIC) (S. aureus 6061): 4.0 [8] μM | EC90, biofilm [5]: 8 µg/mL (≈ 3.75 µM) | EC90, biofilm [6]: 8 µg/mL (≈ 3.75 µM) | MIC [7]: 2 µg/mL (≈ 0.936 µM) | MIC [8]: 4 µg/mL (≈ 1.87 µM) | EC50, biofilm [9]: 32 µg/mL (≈ 15 µM) | Minimum Inhibitory Concentration (MIC) (E. cloacae 6054): 4.0 [8] μM | Minimum Inhibitory Concentration (MIC) (E. cloacae 6053): 4.0 [8] μM | Minimum Inhibitory Concentration (MIC) (C. parapsilosis Y-1761): 8.0 [16] μM | Minimum Inhibitory Concentration (MIC) (C. parapsilosis Y-1763): 1.0 [2] μM | Minimum Inhibitory Concentration (MIC) (C. albicans Y-6359): 2.0 [4] μM | Minimum Inhibitory Concentration (MIC) (C. albicans Y-326): 8.0 [16] μM | Minimum Inhibitory Concentration (MIC) (S. epidermis ATCC 51625): 4.0 [8] μM
